pIC50: −log10 of the molar value.
What was measured:
L1210 = assay: In vitro cytotoxicity, tetrazolium microculture assay, L1210; format: cell-based; conditions: Mus musculus, 48 h; L1210 murine leukaemia, incubated for 2 days; read-out: IC50, the concentration of cytotoxic compound that inhibits the proliferation of the treated cells by 50%
Experimental: (§1) Two cell lines were used: • 1 murine leukaemia, L1210, • 1 human epidermoid carcinoma: KB-3-1
(§2) The cells are cultured in RPMI 1640 complete culture medium comprising 10% fcetal calf serum, 2 mM glutamine, 50 units/ml of penicillin, 50 μg/ml of streptomycin and 10 mM Hepes, pH 7.4. The cells are distributed on microplates and are exposed to the cytotoxic compounds. The cells are then incubated for 2 days (L1210) or 4 days (KB-3-1) in an incubator at 37° C. in the presence of 5% CO2. The number of viable cells is then quantified by a colorimetric assay, the tetrazolium microculture assay (Cancer Res. 1987, 47, 939-942).
(§3) The results are expressed as IC50, the concentration of cytotoxic compound that inhibits the proliferation of the treated cells by 50%.

KB-3-1 = assay: In vitro cytotoxicity, tetrazolium microculture assay, KB-3-1; format: cell-based; conditions: 96 h; KB-3-1 human epidermoid carcinoma, incubated for 4 days; read-out: IC50, the concentration of cytotoxic compound that inhibits the proliferation of the treated cells by 50%
Experimental: as §1, §2, §3

Row | Compound | pIC50 (L1210) | pIC50 (KB-3-1) | melting point [°C]
1 | COc1cc2c(c3c1c(=O)c1cc4ccccc4nc1n3C)[C@@H](OC(C)=O)[C@@H](OC(C)=O)C(C)(C)O2 (racemic) [Example 4, (±)-cis-1,2-Diacetoxy-6methoxy-3,3,14-trimethyl-1,2,3,14-tetrahydro-7H-benzo[b]chromeno[6,5-g][1,8]naphthyridin-7-one] | 6.49 | 7.43 | 244
2 | Cn1c2nc3ccccc3cc2c(=O)c2c(O)cc3c(c21)C=CC(C)(C)O3 [Example 1, 6-Hydroxy-3,3,14-trimethyl-3,14-dihydro-7H-benzo-[b]chromeno-[6,5-g][1,8]naphthyridin-7-one] | – | – | 278
3 | COc1cc2c(c3c1c(=O)c1cc4ccccc4nc1n3C)[C@H]1OC(=O)O[C@H]1C(C)(C)O2 (racemic) [Example 5, (±)-cis-7-Methoxy-4,4,15-trimethyl-15,15c-dihydro-4H-benzo[b][1,3]-dioxolo[4′,5′:3,4]chromeno[6,5-g][1,8]naphthyridin-2,8[3aH]-dione] | – | – | 234
4 | COc1cc2c(c3c1c(=O)c1cc4ccccc4nc1n3C)C=CC(C)(C)O2 [Example 2, 6-Methoxy-3,3,14-trimethyl-3,14-dihydro-7H-benzo[b]chromeno-[6,5-g][1,8]naphthyridin-7-one] | – | – | 270
5 | COc1cc2c(c3c1c(=O)c1cc4ccccc4nc1n3C)[C@@H](O)[C@@H](O)C(C)(C)O2 (racemic) [Example 3, (±)-cis-1,2-Dihydroxy-6-methoxy-3,3,14-trimethyl-1,2,3,14-tetrahydro-7H-benzo[b]chromeno[6,5-g][1,8]naphthyridin-7-one] | – | – | 298

From patent publication US7741325B2, “Benzo[b]chromeno-naphthyridin-7-one and pyrano[2′,3′:7,8]quino[2,3-b]quinoxalin-7-one compounds” (priority 2004, dated 2010)
